# From paper PMC2694832, “Pharmacokinetics, tissue distribution and mass balance of radiolabeled dihydroartemisinin in male rats” (Malaria Journal, 2009)
# Where “and” joins values, the source holds several entries; their conditions need not be identical. Identical values can stand only once.
# What was measured:
# rat plasma proteins = assay: Protein binding of [^14C] DHA, equilibrium dialysis, rat plasma; assay type: in vitro ADME; conditions: undiluted rat plasma, 0.15 to 57800 ng/ml, 37°C, five hours
# Method: (§1) Human blood samples (five men and five women) were freshly obtained from subject volunteers at the Department of Clinical Trials, WRAIR. Rat samples were freshly collected from five male and five female rats. Equilibrium dialysis was performed using Teflon dialysis chambers and Diachema standard membranes as described by Li and Hümpel. The GD-4/90 Equilibrium Dialyzer (MM Developments, Ottawa) contained 20 micro-dialysis cells (2.0 ml/chamber). The molecular weight cutoff for dialysis membranes was 5000 D. Equilibrium was reached after four hours, when cells were rotated at 16 rpm and 37°C. Drugs were dissolved in plasma samples with various concentrations (0.15 – 57800 ng/ml) and all experiments were carried out for five hours.
# human plasma proteins = assay: Protein binding of [^14C] DHA, equilibrium dialysis, human plasma; assay type: in vitro ADME
# Method: as §1
# [1] = Mass balance and urinary/faecal elimination of [^14C] DHA; assay type: in vivo, rats; conditions: rats i.v. 3 mg/kg
# Method: Metabolic cages were washed with a solution of 2% Count-off® (Perkin-Elmer Life and Analytical Sciences, Boston, Massachusetts, USA) and the volume was measured. Duplicate portions (0.1 ml urine; 1 ml cage rinse) of each sample were radio-assayed after the addition of scintillation cocktail. The weights of individual faecal samples were obtained and the samples were subsequently homogenized in four volumes of de-ionized water. Quadruplicate portions (1.0 ml) of each homogenate were decolourized with 30% hydrogen peroxide, and digested with Solvable® tissue solubilizer. After acidification with glacial acetic acid and addition of scintillation cocktail, samples were assayed for radioactivity. The samples were kept in at -20°C for two weeks prior to analysis.
# [2] = Feces, listed as [^14C] dihydroartemisinin, 3 mg/kg
# [3] = Total, through 192 hours, 3 mg/kg
# [4] = Total, through 192 hours, listed as [^14C] dihydroartemisinin, 3 mg/kg
# [5] = Urine, listed as [^14C] dihydroartemisinin, 3 mg/kg
smiles,measurement,setting,value
"C[C@@H]1CC[C@H]2[C@@H]([14CH3])C(O)O[C@@H]3O[C@@]4(C)CC[C@@H]1[C@]32OO4 (stereo partly drawn) [[^14C] DHA, [16-^14C] DHA]",plasma protein binding percentage,rat plasma proteins,76–82%
same,maximum binding percentage,"human plasma proteins; human plasma, concentration range 0.15 – 462 ng/ml",82%
same,"binding percentage declined to, at higher concentrations","human plasma proteins; human plasma, higher concentrations (> 25 ng/ml)",66%
same,plasma protein binding percentage,"human plasma proteins; undiluted human plasma, 0.15 to 57800 ng/ml, 37°C, five hours",76–82%
same,Fecal excretion of total radiolabel (Feces),[1]; 0.04–0.33 days,1.52 ± 0.58 % of dose
same,Fecal excretion of total radiolabel (Feces),[1]; 0.33–1.0 days,29.56 ± 11.75 % of dose
same,Fecal excretion of total radiolabel (Feces),[1]; 1–2 days,6.14 ± 1.71 % of dose
same,Fecal excretion of total radiolabel (Feces),[1]; 2–3 days,1.64 ± 0.78 % of dose
same,Fecal excretion of total radiolabel (Feces),[1]; 3–4 days,0.78 ± 0.31 % of dose
same,Fecal excretion of total radiolabel (Feces),[1]; 4–5 days,0.46 ± 0.09 % of dose
same,Fecal excretion of total radiolabel (Feces),[1]; 5–6 days,0.15 ± 0.06 % of dose
same,Fecal excretion of total radiolabel (Feces),[1]; 6–7 days,0.11 ± 0.05 % of dose
same,Fecal excretion of total radiolabel (Feces),[1]; 7–8 days,0.04 ± 0.04 % of dose
same,Peak height,"[1]; Feces, 3 mg/kg",292.39 μg/rat
same,Peak time,"[1]; Feces, 3 mg/kg",0.67 days
same,Peak height,[1]; [2],292.39 ± 150.29 μg/rat
same,Peak time,[1]; [2],0.67 ± 0.09 days
same,Fecal excretion of total radiolabel (Feces),[1]; [3],~40.39 % of dose and ~40 % of dose
same,Total radiolabel in Cage wash,[1]; [3],~1.88 % of dose
same,Fecal excretion of total radiolabel (Feces),[1]; [4],40.39 ± 13.22 % of dose
same,Total radiolabel in Cage wash,[1]; [4],1.88 ± 2.27 % of dose
same,Peak time,"[1]; Urine, 3 mg/kg",0.37 days
same,Peak height,[1]; [5],234.48 ± 33.74 μg/rat
same,Peak time,[1]; [5],0.37 ± 0.06 days
same,lag time of elimination,[1]; faeces,0.31 days
same,Ratio of excretion (urine/feces),[1],1.37 ± 0.39
same,"faecal excretion, range among animals",[1]; through 192 hours,27–53 % of the administered dose
same,"urinary excretion, range among animals",[1]; through 192 hours,44–61 % of the administered dose
same,total dose excreted within first 24 hours,[1]; urine and faeces,greater than 74.76%
same,lag time of elimination,[1]; urine,< 0.02 days
